Experimental data reported in the NIST ThermoML archive (doi:10.1021/je034182z).
± gives the expanded uncertainty stated by the source.

What was measured:
[1] = 298.15 K; 101.33 kPa; Liquid
[2] = refractive index (Na D-line) (dimensionless); details: 298.15 K; 101.33 kPa; Liquid; Standard Abbe refractometry

SMILES: CCCCCCCC [octane]
- mass density [1]: 698.5 ± 0.8 kg/m3
- refractive index [2]: 1.3954 ± 0.0007

SMILES: C1CCOC1 [tetrahydrofuran]
- mass density [1]: 881.9 ± 1.3 kg/m3
- refractive index [2]: 1.4047 ± 0.0007

SMILES: Cc1cccc(C)c1 [1,3-dimethylbenzene]
- mass density [1]: 860.3 ± 0.5 kg/m3
- refractive index [2]: 1.4947 ± 0.0007

SMILES: CCCCCCC [heptane]
- mass density [1]: 679.4 ± 0.8 kg/m3
- refractive index [2]: 1.3854 ± 0.0007

SMILES: CCCCCC [hexane]
- mass density [1]: 655.1 ± 0.7 kg/m3
- refractive index [2]: 1.3747 ± 0.0007
